Assay: Photostability of avobenzone in thin films of sunscreen compositions irradiated with solar simulated UVR
Type: physicochemical
Conditions: menthyl anthranilate at all levels, composition with octisalate, homosalate and avobenzone, up to 4 hours
Method: To investigate its stabilizing effect of menthyl anthranilate on the photostability of avobenzone, menthyl anthranilate (meradimate) was incorporated into a fixed sunscreen composition at different levels. Thin film strips of each composition were then irradiated with solar simulated UVR for up to 4 hours as described in detail below. The compositions were then analyzed for the presence of avobenzone after a given period of time. • Formula compositions were prepared as follows: […]
Assessment of avobenzone's photostability was performed on four different compositions that differed only in the amount of menthyl anthranilate that were used in the formulation.
The photostability of avobenzone in each emulsion was assessed after exposure to 80 joules of UV radiation (which corresponds to about 4 hours of outside sun exposure at noon in Memphis, Tenn. in June) using the method described below. […] Even 1% menthyl anthranilate improved avobenzone's photostability by approximately 6% after 2 hours and by 17% after 4 hours of exposure. […]
Avobenzone's photostability was assessed by spreading known weights (14-18 mg) of emulsions onto glass microscope slides at an application density of about 2 mg/cm^2. […] UVR flux was measured using an OL 754 Spectroradiometer (Optronics laboratories, Inc., Orlando, Fla.) with an 8 inch integrating sphere. […]

Structure (SMILES): CC1CCC(C(C)C)C(OC(=O)c2ccccc2N)C1 (stereo not shown) [menthyl anthranilate]
- effect on photostability of avobenzone to ultraviolet radiation (UVR): improves photostability of avobenzone
